# Measured values reported in US6376511B2, “8-aminoquinolines” (The University of Mississippi, priority 1999, dated 2002).
# Read-outs that look alike come from different tables or passages of the source.
# Assays:
# [1] = test system: Plasmodium berghei KBG-173; assay type: in vivo; settings: for Mice surviving 60 days/Mice infected and treated: P. berghei in mice; for Parasitemia Day 6: percentage of red blood cells with parasites, control 31.8
# Description: Blood Schizontocidal Test (Trophozoite-Induced Plasmodium berghei Infection in mice University of Miami, Test System: Thompson Test
# Drugs were mixed in 0.5% hydroxycellulose 0.1% Tween 80 and administered orally b.i.d. on days 3, 4 and 5 postinfection. CD-1 male or female mice, 5 weeks of age, were infected with 5×10^4 parasitized erythrocytes of Plasmodium berghei KBG-173 mm strain. Blood films were taken on day +6 and weekly thereafter until day +60. Parasitemias were calculated and SD90 value (dose suppressing 90% of the parasites in treated groups compared with the infected non-treated controls) on day +6 postinfection. Mortality data was tabulated for 60 days at which time all mice surviving that were blood film negative were considered cured.
# […] The activity of these compounds were compared with the untreated control and “racemate” which is a mixture of equal amount of each enantiomer X and Y. In untreated controls, death occurs within 8-9 days. Compounds which are effective against Plasmodium berghei infection increase the mean survival time of the infected animals when compared with the untreated controls. Mice that survive after thirty days and are free of parasites in blood are considered cured.
# Efficacy of the drug is determined by the number of cures at the end of a 30 day period and the increase in mean survival time over the control (ΔMST). The effect of the test drugs also could be determined by the reduction of the parasitemia (percentage of the red blood cells detected with the parasites) over the untreated control on day 6, one day after the treatment is completed. Both these methods yield virtually identical results. If the dose of test compounds are inadequate, after initial clearance, residual parasites will multiply and relapses will occur within thirty days. The blood schizontocidal activities (suppressive antimalarial) of X, Y, and racemate against P. berghei in mice are shown in Table 11.
# Pneumocystis carinii = assay: Anti-Pneumocystis carinii test (induced Pneumocystis carinii infection in immunosuppressed mice), oral; assay type: in vivo; settings: for Giemsa Stain Score / Silver stain Score / Giemsa Stain I/T (animals with organism after treatment/animals treated) / Silver stain I/T (animals with organism after treatment/animals treated): mice; for Giemsa Stain Score / Silver stain Score: mean score on 0 to 5+ scale; for Number of animals with organism after treatment/Number of animals treated, Giesma Stain: mice (Table 8)
# [2] = test system: Plasmodium berghei KBG-173; assay: Prophylactic test, Plasmodium berghei infection in mice, oral; assay type: in vivo; settings: single dose of 2 mg/kg
# Source text: CD-I male or female mice, 5 weeks of age, were infected with 5×10^4 parasitized erythrocytes ot Plasmodium berghei KBG-173 mm strain. Blood films were taken on day +6 and weekly thereafter until day+30. […]
# [3] = test system: trypanosome isolate KETRI 243As103; assay: Antitrypanosomal activity, trypanosome isolates grown as blood forms in HMI-18; assay type: cell-based, Trypanosoma; settings: KETRI 243As103, after 48 h, 20% horse serum; succinate
# Description: (§1) Compounds were tested vs. trypanosome isolates grown as blood forms in HMI-18 (Hirumi H., Hirumi, K. 1989. Continuous Cuitivation of Trypanosoma brucei bloodstream forms in a medium containing a low concentration of serum portein without feeder cell layers. J. Parasitol. 75:985-989) containing 20% horse serum.
# [4] = test system: trypanosome isolate KETRI 243; assay: as above; assay type: cell-based, Trypanosoma; settings: KETRI 243, after 48 h, 20% horse serum; succinate; read-out: IC50
# Description: as §1
# [5] = test system: trypanosome isolate EATRO Lab 110; assay: as above; assay type: cell-based, Trypanosoma; settings: EATRO Lab 110, after 48 h, 20% horse serum, read-out: IC50
# Description: as §1
# [6] = test system: trypanosome isolate KETRI 269; assay: as above; assay type: cell-based, Trypanosoma; settings: KETRI 269, after 48 h, 20% horse serum, read-out: IC50
# Description: as §1
# [7] = rhesus monkey; cited from earlier work
# L. donovani Chagasi PP75 = assay: In vitro anti-Leishmania activity, Giemsa counts; assay type: cell-based; settings: 1350 ng/mL; control 6.35
# P. cynomolgi = settings: rhesus monkey, cited from earlier work
# [8] = mice; cited from earlier work
# [9] = oral dose 1 mg/kg/day (total dose 3 mg/kg)
# [10] = oral dose 4 mg/kg/day (total dose 12 mg/kg)
# [11] = oral dose 16 mg/kg/day (total dose 48 mg/kg)
# [12] = oral dose 64 mg/kg/day (total dose 192 mg/kg)
# [13] = oral 0.25 mg/kg/day (x21), succinate, 0.25 mg/kg/day
# [14] = 0.25 mg/kg/day, 0.75 mg/kg total, succinate
# [15] = 1 mg/kg/day, 3 mg/kg total, succinate
# [16] = 4 mg/kg/day, 12 mg/kg total, succinate
smiles,measurement,setting,value
"COc1cc(NC(C)CCCN)c2nccc(C)c2c1Oc1cccc(C(F)(F)F)c1 (stereo not drawn) [WR-225,448, reference compound]",Mice surviving 60 days/Mice infected and treated,[1]; [9],7/7
same,Mice surviving 60 days/Mice infected and treated,[1]; [10],7/7
same,Mice surviving 60 days/Mice infected and treated,[1]; [11],7/7
same,Mice surviving 60 days/Mice infected and treated,[1]; [12],4/7
"COc1cc(NC(C)CCCN)c2nccc(C)c2c1Oc1ccc(Cl)c(Cl)c1 (single isomer, unassigned; (+)) [X, (+) 8-[(4-amino-1-methylbutyl)amino]-5-(3,4-dichlorophenoxy)-6-methoxy-4-methylquinoline succinate]",Giemsa Stain Score,Pneumocystis carinii; [13],0.55 ± 0.16
same,Silver stain Score,Pneumocystis carinii; [13],1.15 ± 0.16
same,Giemsa Stain I/T (animals with organism after treatment/animals treated),Pneumocystis carinii; [13],6/10
same,Silver stain I/T (animals with organism after treatment/animals treated),Pneumocystis carinii; [13],10/10
same,Giemsa Stain I/T (animals with organism after treatment/animals treated),Pneumocystis carinii; oral 0.5 mg/kg/day (x21),2/10
same,Silver stain I/T (animals with organism after treatment/animals treated),Pneumocystis carinii; oral 0.5 mg/kg/day (x21),2/10
same,Giemsa Stain Score,Pneumocystis carinii; oral 0.5 mg/kg/day (x21),0.20 ± 0.10
same,Silver stain Score,Pneumocystis carinii; oral 0.5 mg/kg/day (x21),0.1 ± 0.1
same,Giemsa Stain I/T (animals with organism after treatment/animals treated),Pneumocystis carinii; oral 1 mg/kg/day (x21),0/10
same,Silver stain I/T (animals with organism after treatment/animals treated),Pneumocystis carinii; oral 1 mg/kg/day (x21),0/10
same,Giemsa Stain Score,Pneumocystis carinii; oral 1 mg/kg/day (x21),0.0
same,Silver stain Score,Pneumocystis carinii; oral 1 mg/kg/day (x21),0.0
same,Giemsa Stain I/T (animals with organism after treatment/animals treated),Pneumocystis carinii; oral 5 mg/kg/day (x21),0/10
same,Silver stain I/T (animals with organism after treatment/animals treated),Pneumocystis carinii; oral 5 mg/kg/day (x21),0/10
same,Giemsa Stain Score,Pneumocystis carinii; oral 5 mg/kg/day (x21),0.0
same,Silver stain Score,Pneumocystis carinii; oral 5 mg/kg/day (x21),0.0
same,Mice surviving day 60/Mice infected and treated,"[2]; day of treatment 2 (Table 5), listed as X Enantiomer, succinate, 2 mg/kg",0/5
same,Mice surviving day 60/Mice infected and treated,"[2]; day of treatment -2 (Table 5), listed as X Enantiomer, succinate, 2 mg/kg",0/5
same,Mice surviving day 60/Mice infected and treated,[2]; day of treatment -3 (Table 5),0/5
same,Mice surviving day 60/Mice infected and treated,[2]; day of treatment -4 (Table 5),0/5
same,Mice surviving day 60/Mice infected and treated,[2]; day of treatment -5 (Table 5),0/5
same,Parasitemia Day 6,[1]; [14],28.2
same,Mice Alive Day 26,[1]; [14],0/5
same,ΔMST (increase in mean survival time over the control),[1]; [14],0 days
same,ΔMST (increase in mean survival time over the control),"[1]; 1 mg/kg/day, 3 mg/kg total",6 days
same,Parasitemia Day 6,[1]; [15],27.4
same,Mice Alive Day 26,[1]; [15],0/5
same,ΔMST (increase in mean survival time over the control),"[1]; 4 mg/kg/day, 12 mg/kg total",11 days
same,Parasitemia Day 6,[1]; [16],1.1
same,Mice Alive Day 26,[1]; [16],0/5
same,IC50,[3],36 µM
same,IC50,[4],34 µM
same,IC50,"[5]; Trypanosoma, 48 h",8.3 µM
same,IC50,"[6]; Trypanosoma, 48 h",37 µM
"COc1cc(NC(C)CCCN)c2nccc(C)c2c1Oc1ccc(Cl)c(Cl)c1 (single isomer, unassigned; (-)) [Y, (−)-8-[(4-amino-1-methylbutyl)amino]-5-(3,4-dichlorophenoxy)-6-methoxy-4-methylquinoline succinate]","activity in the mouse model of PCP, enantiomer comparison",Pneumocystis carinii; (−) versus (+) enantiomer of DN3-27-1,significantly greater activity than the (+) enantiomer
same,Giemsa Stain Score,Pneumocystis carinii; [13],0.0
same,Silver stain Score,Pneumocystis carinii; [13],0.0
same,Giemsa Stain I/T (animals with organism after treatment/animals treated),Pneumocystis carinii; [13],0/10
same,Silver stain I/T (animals with organism after treatment/animals treated),Pneumocystis carinii; [13],0/10
same,Giemsa Stain I/T (animals with organism after treatment/animals treated),Pneumocystis carinii; oral 1 mg/kg/day (x21),0/10
same,Silver stain I/T (animals with organism after treatment/animals treated),Pneumocystis carinii; oral 1 mg/kg/day (x21),0/10
same,Giemsa Stain Score,Pneumocystis carinii; oral 1 mg/kg/day (x21),0.0
same,Silver stain Score,Pneumocystis carinii; oral 1 mg/kg/day (x21),0.0
same,Giemsa Stain I/T (animals with organism after treatment/animals treated),Pneumocystis carinii; oral 5 mg/kg/day (x21),0/10
same,Silver stain I/T (animals with organism after treatment/animals treated),Pneumocystis carinii; oral 5 mg/kg/day (x21),0/10
same,Giemsa Stain Score,Pneumocystis carinii; oral 5 mg/kg/day (x21),0.0
same,Silver stain Score,Pneumocystis carinii; oral 5 mg/kg/day (x21),0.0
same,Mice surviving day 60/Mice infected and treated,"[2]; day of treatment 2 (Table 5), listed as Y Enantiomer, succinate, 2 mg/kg",5/5
same,Mice surviving day 60/Mice infected and treated,"[2]; day of treatment -2 (Table 5), listed as Y Enantiomer, succinate, 2 mg/kg",1/5
same,Mice surviving day 60/Mice infected and treated,[2]; day of treatment -3 (Table 5),0/5
same,Mice surviving day 60/Mice infected and treated,[2]; day of treatment -4 (Table 5),0/5
same,Mice surviving day 60/Mice infected and treated,[2]; day of treatment -5 (Table 5),0/5
same,Parasitemia Day 6,[1]; [14],0.2
same,Mice Alive Day 26,[1]; [14],0/0
same,ΔMST (increase in mean survival time over the control),[1]; [14],11.6 days
same,Parasitemia Day 6,[1]; [15],0.0
same,Mice Alive Day 26,[1]; [15],4/5
same,ΔMST (increase in mean survival time over the control),[1]; [15],13.6 days
same,Parasitemia Day 6,[1]; [16],0.0
same,Mice Alive Day 26,[1]; [16],5/5
same,IC50,[3],17.5 µM
same,IC50,[4],11 µM
same,IC50,[5]; succinate,13.5 µM
same,IC50,[6]; succinate,27 µM
"COc1cc(NC(C)CCCN)c2ncccc2c1 (single isomer, unassigned; (-)) [(−) Primaquine, reference compound]",toxicity relative to d-primaquine,[7],3 to 5 times
same,toxicity relative to racemic primaquine,[7],at least twice as toxic
same,"Number of animals with organism after treatment/Number of animals treated, Giesma Stain","Pneumocystis carinii; oral 5 mg/kg/day (x21), listed as (−) Enantiomer, 5 mg/kg/day",10/10
same,"Number of animals with organism after treatment/Number of animals treated, Giesma Stain","Pneumocystis carinii; oral 10 mg/kg/day (x21), listed as (−) Enantiomer, 10 mg/kg/day",10/10
CCCCCOc1c(OC)cc(NC(C)CCCN)c2nccc(C)c12 (stereo not drawn) [Compound 4],Mice surviving 60 days/Mice infected and treated,[1]; [9],7/7
same,Mice surviving 60 days/Mice infected and treated,[1]; [10],7/7
same,Mice surviving 60 days/Mice infected and treated,[1]; [11],4/7
same,Mice surviving 60 days/Mice infected and treated,[1]; [12],0/7
"O=C1C(O)=C([C@H]2CC[C@H](c3ccc(Cl)cc3)CC2)C(=O)c2ccccc21 [Atovaquone, reference compound]",Giemsa Counts,L. donovani Chagasi PP75,5.05 ± 0.21
"COc1cc(C)c2c(Oc3cccc(C(F)(F)F)c3)c(OC)cc(NC(C)CCCN)c2n1 (stereo not drawn) [WR-238,605, reference compound]",Mice surviving 60 days/Mice infected and treated,[1]; [9],0/7
same,Mice surviving 60 days/Mice infected and treated,[1]; [10],1/7
same,Mice surviving 60 days/Mice infected and treated,[1]; [11],7/7
same,Mice surviving 60 days/Mice infected and treated,[1]; [12],1/7
"COc1cc(NC(C)CCCN)c2ncccc2c1 (stereo not drawn) [Primaquine, reference compound]","Number of animals with organism after treatment/Number of animals treated, Giesma Stain","Pneumocystis carinii; oral 5 mg/kg/day (x21), 5 mg/kg/day",10/10
same,"Number of animals with organism after treatment/Number of animals treated, Giesma Stain","Pneumocystis carinii; oral 10 mg/kg/day (x21), 10 mg/kg/day",5/10
same,Mice surviving 60 days/Mice infected and treated,[1]; [9],0/7
same,Mice surviving 60 days/Mice infected and treated,[1]; [10],0/7
same,Mice surviving 60 days/Mice infected and treated,[1]; [11],1/7
same,Mice surviving 60 days/Mice infected and treated,[1]; [12],3/7
same,Monkeys infected and treated/cured,"P. cynomolgi; 0.316 mg/kg/day x7, orally",0/2
same,Monkeys infected and treated/cured,"P. cynomolgi; 1.0 mg/kg/day x7, orally",1/2
"COc1cc(NC(C)CCCN)c2ncccc2c1 (single isomer, unassigned; (+)) [(+) Primaquine, reference compound]","Number of animals with organism after treatment/Number of animals treated, Giesma Stain",Pneumocystis carinii; oral 2 mg/kg/day (x21),10/10
same,"Number of animals with organism after treatment/Number of animals treated, Giesma Stain","Pneumocystis carinii; oral 5 mg/kg/day (x21), listed as (+) Enantiomer, 5 mg/kg/day",7/10
same,"Number of animals with organism after treatment/Number of animals treated, Giesma Stain","Pneumocystis carinii; oral 10 mg/kg/day (x21), listed as (+) Enantiomer, 10 mg/kg/day",1/10
same,toxicity relative to the l-form,[8],approximately 4 times
